Series [1] concerns MCF-7 breast cancer cells. The series can be described thus: MTT cell viability, 48-h incubation, complete medium, MCF-7. The class given is cell-based, human. The note with it: for IC50: Homo sapiens, MCF7, 48-h incubation, complete medium, mean ± SD. The protocol:
(§1) Unless otherwise specified, all cell culture experiments were performed in a humidified 5% (v/v) CO2 air atmosphere at 37 °C in complete medium, and cell culture growth media were supplemented with 10% (v/v) foetal bovine serum and 2 mM L-glutamine. Human breast adenocarcinoma cell lines were cultured, maintained at densities lower than 1 × 10^6 cells/cm^2 and discarded upon reaching passage number 60. Stromal healthy cells (human colorectal fibroblasts, 18Co) were cultured using complete DMEM medium supplemented also with 1% (v/v) penicillin–streptomycin. Cells were maintained at densities less than 1 × 10^6 cells/cm^2 and discarded upon reaching passage number 12.
(§2) The full library of coumarins was tested in both breast cancer cell lines, i.e. MCF-7 and MDA-MB-231. Fibroblast were used as “healthy” control. Stocks of compounds 3a–3c, 4a–4m and 5 were dissolved in pure DMSO and then diluted in complete media. (Note that DMSO concentration was kept lower than 0.5% (v/v).) Briefly, MCF-7 and MDA-MB-231 cells were seeded in 96-well plates (3799, Corning Inc., NY, USA) at a density of 1 × 10^4 and 6.7 × 10^3 cells/cm^2, respectively, whereas 18Co fibroblasts were seeded at a density of 1 × 10^4 cells/cm^2. Cells were incubated with coumarin derivatives at concentrations 0.1, 1, 10, 50, 100 and 250 μM for 48 h. Untreated cells (negative) and cells incubated with 0.5% (v/v) DMSO in complete media (positive) were used as controls.
(§3) For each treatment, cell viability was measured via MTT assay after 48-h incubation as following described. Cell culture medium was replaced with 150 μL of fresh medium and 30 μL of MTT solution, and cells were incubated for 4 h (37 °C, 5% CO2). After the formazan crystal formation, cell culture medium was removed from each well and replaced with 200 μL of DMSO. The absorbance was measured at 540-nm wavelength using a plate reader (Synergy 2 Biotek plate reader, Gen5 software).
(§4) IC50 values were calculated (nonlinear regression, normalized response–variable slope) with GraphPad Prism (version 7.04). Values were ranked and classified as: high toxicity, moderate toxicity, poor toxicity and no toxicity. Threshold were set as 60, 80 and > 100 μM, respectively. The selection was used in order to test only the most toxic coumarins under cell culture condition more relevant to the tumour microenvironment, i.e. deprived cell culture media (Sect. 3.3).

In series [2] the test system is MDA-MB-231 breast cancer cells. Description: MTT cell viability, 48-h incubation, complete medium, MDA-MB-231. The class given is cell-based, human. The note with it: for IC50: Homo sapiens, MDA-MB-231, complete medium, mean ± SD. The protocol:
as §1, §2, §3, §4

Series [3] relates to 18Co colon fibroblasts. The series can be described thus: MTT cell viability, 48-h incubation, 18Co fibroblasts (healthy control). The note with it: for IC50: Homo sapiens, Fibroblast, 48-h incubation, healthy control, mean ± SD. It is filed as cell-based, human. The protocol: as §1, §2, §3, §4
For series [4], the system named is MCF-7 breast cancer cells. Description: MTT cell viability under nutrient-deprived conditions, MCF-7. It is filed as cell-based. Conditions: Homo sapiens, MCF7, up to 48 h, average ± SD. The protocol:
(§5) Cells were culture using nutrient-deprived cell culture conditions (i.e. cell culture media with no glucose, L-glutamine, HEPES and sodium pyruvate) to mimic conditions similar to the tumour microenvironment. Note that these experiments were performed only using breast cancer cells. MCF-7 and MDA-MB-231 cells were seeded in 96-well plates (Corning Inc., NY, USA) at a density of 1 × 10^4 and 6.7 × 10^3 cells/cm^2, respectively. Cells were incubated with coumarin derivatives at concentrations of 0.1, 1, 10, 50, 100 and 250 μM up to 48 h. Untreated cells (negative) and cells incubated with 0.5% (v/v) DMSO in complete media (positive) were used as controls.
as §3, §4
(§6) On that basis, we exposed the breast cancer cells to nutrient-deprived conditions where culture media were supplemented only with 2.5% v/v FBS, but not additional glucose, L-glutamine, sodium pyruvate. The coumarins tested were auraptene (4k), umbelliprenin (4l) and analogues 4d, 4c and 4g. […] In similar studies, Zhang et al. and Jun et al. reported the high preferential cytotoxicity of umbelliprenin (4l) and its C6 analogue under NDC against pancreatic cancer cells. It should be therefore noted that these derivatives could represent a potential new tool for treating aggressively metastatic hypoxic tumours. The exact mechanism of action, though, should be further investigated.

In series [5] the test system is MDA-MB-231 breast cancer cells. The series can be described thus: MTT cell viability under nutrient-deprived conditions, MDA-MB-231. Conditions: Homo sapiens, up to 48 h, average ± SD. The class given is cell-based. The procedure: as §5, §3, §4, §6

Experimental findings from paper PMC7870773, “Investigation of the cytotoxicity of bioinspired coumarin analogues towards human breast cancer cells” (Molecular Diversity, 2020) are described below.

For `CC(C)=CCC/C(C)=C/COc1ccc2c(C)cc(=O)oc2c1` [4b, 7-Geranyloxy-4-methyl-2H-chromen-2-one], the results for the IC50 in series [1] and in series [2] were 129 ± 13 µM and 137 ± 9 µM, respectively.

Regarding `CC(C)=CCCC(C)=CCCC(C)=CCOc1ccc2ccc(=O)oc2c1` [4l, 7-Farnesyloxy-coumarin], the IC50 is 98 ± 9 µM in series [1]; 88 ± 3 µM in series [2]; > 250 µM in series [3]; 9 ± 1 µM in series [4]; 7 ± 2 µM in series [5].

As for `CCCc1cc(=O)oc2cc(OCC=C(C)C)cc(OCC=C(C)C)c12` [4h, 5,7-Diprenyloxy-4-propyl-2H-chromen-2-one], the melting point lay in the range of 71 to 72 °C. In series [1], the IC50 came to 234 ± 76 µM. The IC50 in series [2] amounted to 159 ± 61 µM.

As to `COc1cccc2c1C(=O)c1c(O)c3c(c(O)c1C2=O)C[C@@](O)(C(=O)CO)C[C@@H]3O[C@H]1C[C@H](N)[C@H](O)[C@H](C)O1` [doxorubicin, reference compound], the figures for the IC50 in series [1] and in series [2] were 0.97 µM and 0.48 µM, respectively.

As to `CC(C)=CCCC(C)=CCCC(C)=CCOc1ccc2c(C)cc(=O)oc2c1` [4c, 7-Farnesyloxy-4-methyl-2H-chromen-2-one], the IC50 in series [1] is 105 ± 3 µM; in series [2] it was 110 ± 29 µM; in series [3], > 250 µM; in series [4] it was 19 ± 3 µM; in series [5] it was 51 ± 9 µM.

Consider `CC(C)=CCOc1ccc2ccc(=O)oc2c1` [4j, 7-Prenyloxy-2H-chromen-2-one], for which the IC50 in series [1] was determined as 143 ± 11 µM; in series [2], 175 ± 33 µM.

Compound `CCCCCCCCOc1ccc2c(CCC)cc(=O)oc2c1` [4f, 7-Octyloxy-4-propyl-2H-chromen-2-one] registered a melting point of 47 °C. In series [1], the IC50 was 124 ± 39 µM. The IC50 in series [2] stood at 143 ± 34 µM.

Take `CC(C)=CCOc1cc(OCC=C(C)C)c2c(C)cc(=O)oc2c1` [4g, 5,7-Diprenyloxy-4-methyl-2H-chromen-2-one]: the melting point was 90 °C. Further, in series [1], the IC50 is 69 ± 14 µM. Besides, the “fold more cytotoxic than monosubstituted analogue 4a” value in series [1] (MCF-7 cells, 4g versus 4a) is on record as “approximately 2.5 times”. Also, the 50% inhibitory concentration (IC50) in series [2] is 144 ± 16 µM. In series [3], the IC50 is 216 ± 23 µM. The IC50 in series [4] was found to be 35 ± 9 µM. Further, in series [5], the IC50 was found to be 11 ± 2 µM.

For the compound `CCCCCCCCOc1ccc2c(C)cc(=O)oc2c1` [4d, 4-Methyl-7-octyloxy-2H-chromen-2-one], the melting point amounted to 51 °C. Moreover, the IC50 in series [1] was found to be 82 ± 19 µM. Also, in series [2], the “cytotoxicity in words, MDA-MB-231” value was “slight toxic effect” and the IC50 came to 113 ± 7 µM. Further, in series [3], the IC50 stood at 206 ± 17 µM. Besides, the IC50 in series [4] amounted to 29 ± 3 µM. For the same compound, in series [5], the IC50 was determined as 63 ± 5 µM.

Turning to `Cc1cc(=O)oc2cc(O)cc(O)c12` [3b, 5,7-Dihydroxy-4-methyl-2H-chromen-2-one], the IC50 in series [1] and in series [2] was > 250 µM throughout.

Regarding `CC(C)=CCC/C(C)=C/CC/C(C)=C/CC/C(C)=C/COc1ccc2ccc(=O)oc2c1` [4m, 7-Geranylgeranyloxy-coumarin], the melting point is 72 to 73 °C. Besides, the IC50 in series [1] was > 250 µM. Besides, the IC50 in series [2] was 187 ± 66 µM.

On to `CC(C)=CCC/C(C)=C/COc1ccc2ccc(=O)oc2c1` [4k, 7-Geranyloxy-2H-chromen-2-one], for which the IC50 worked out at 70 ± 5 µM in series [1]; 60 ± 4 µM in series [2]; 176 ± 62 µM in series [3]; 14 ± 5 µM in series [4]; 12 ± 8 µM in series [5]. Also, the “toxicity in words, 18Co fibroblasts” value in series [3] (healthy control cells) is recorded as “some toxicity”.

On to `CC(=O)Oc1cc(OC(C)=O)c2c(C)cc(=O)oc2c1` [compound 5, 5,7-Diacetyloxy-4-methyl-2H-chromen-2-one], for which the IC50 in series [1] and in series [2] was > 250 µM throughout.

The compound `CCCc1cc(=O)oc2cc(O)ccc12` [3a, 7-Hydroxy-4-propyl-2H-chromen-2-one] had a melting point of 130 °C. Also, the IC50 in series [1] came out at 225 ± 19 µM. Further, in series [2], the IC50 stood at 206 ± 9 µM.

The compound `CC(C)=CCOc1ccc2c(C)cc(=O)oc2c1` [4a, 7-Prenyloxy-4-methyl-2H-chromen-2-one] displayed a melting point of 84 °C. Further, the IC50 in series [1] was determined as 179 ± 35 µM. Besides, in series [2], the IC50 is 169 ± 23 µM.

As to `O=c1ccc2ccc(O)cc2o1` [3c, 7-hydroxy-coumarin], the IC50 in series [1], in series [2] and in series [3] was > 250 µM in each case.

`CCCc1cc(=O)oc2cc(OCC=C(C)C)ccc12` [4e, 7-Prenyloxy-4-propyl-2H-chromen-2-one] returned a melting point of 89 °C. Also, the IC50 in series [1] is > 250 µM. The IC50 in series [2] was > 250 µM.

Take `CCCc1cc(=O)oc2cc(OC/C=C(\C)CCC=C(C)C)cc(OC/C=C(\C)CCC=C(C)C)c12` [4i, 5,7-Digeranyloxy-4-propyl-2H-chromen-2-one]: the melting point came to 79 °C. In addition, in series [1], the IC50 was > 250 µM. The IC50 in series [2] was found to be 133 ± 34 µM.

As usually defined, the IC50 is the concentration that gives 50% inhibition. For orientation: melting point means the temperature, or range, at which the solid turns liquid.
